Results: ChEMBL document CHEMBL3526121, “Pharmacokinetics, bioavailability, tissue distribution, excretion, and metabolite identification of methoxyflavones in Kaempferia parviflora extract in rats” (Drug Metab Dispos, 2012)

Assays:
[1] = Drug excretion in Wistar rat urine at 750 mg/kg, po after 12 hrs by HPLC-UV analysis; assay type: ADME, organism-based; parameters: dose 750 mg/kg, route oral; settings: in vivo
[2] = Drug excretion in Wistar rat feces at 750 mg/kg, po after 12 hrs by HPLC-UV analysis; assay type: ADME, organism-based; parameters: dose 750 mg/kg, route oral; settings: in vivo
[3] = Drug metabolism in Wistar rat urine/feces treated with 750 mg/kg, po of 3,5,7,4'-tetramethoxyflavone by LC-MS and LC-MS/MS analysis; assay type: ADME, organism-based; parameters: dose 750 mg/kg, route oral; settings: in vivo
[4] = Drug metabolism in Wistar rat assessed as excretion of 3,5-dihydroxy-7-methoxy-2-(4-methoxyphenyl)-4H-chromen-4-one in urine/feces at 750 mg/kg, po by LC-MS and LC-MS/MS analysis; assay type: ADME, organism-based; parameters: dose 750 mg/kg, route oral; settings: in vivo
[5] = Drug metabolism in Wistar rat assessed as excretion of 3,5-dihydroxy-2-(4-hydroxyphenyl)-7-methoxy-4H-chromen-4-one in feces at 750 mg/kg, po by LC-MS and LC-MS/MS analysis; assay type: ADME, organism-based; parameters: dose 750 mg/kg, route oral; settings: in vivo
[6] = Drug metabolism in Wistar rat assessed as excretion of 7-methoxy-2-(4-methoxyphenyl)-4-oxo-4H-chromen-5-yl hydrogen sulfate in urine at 750 mg/kg, po by LC-MS and LC-MS/MS analysis; assay type: ADME, organism-based; parameters: dose 750 mg/kg, route oral; settings: in vivo
[7] = Drug metabolism in Wistar rat assessed as excretion of 5-hydroxy-2-(4-methoxyphenyl)-4-oxo-4H-chromen-7-yl hydrogen sulfate in urine at 750 mg/kg, po by LC-MS and LC-MS/MS analysis; assay type: ADME, organism-based; parameters: dose 750 mg/kg, route oral; settings: in vivo
[8] = Drug metabolism in Wistar rat assessed as excretion of 5-hydroxy-2-(4-hydroxyphenyl)-7-methoxy-4H-chromen-4-one in urine/feces at 750 mg/kg, po by LC-MS and LC-MS/MS analysis; assay type: ADME, organism-based; parameters: dose 750 mg/kg, route oral; settings: in vivo
[9] = Drug excretion in Wistar rat urine at 750 mg/kg, po after 24 to 72 hrs by HPLC-UV analysis; assay type: ADME, organism-based; parameters: dose 750 mg/kg, route oral; settings: in vivo
[10] = Drug excretion in Wistar rat feces at 750 mg/kg, po after 18 to 24 hrs by HPLC-UV analysis; assay type: ADME, organism-based; parameters: dose 750 mg/kg, route oral; settings: in vivo
[11] = AUC in Wistar rat at 250 mg/kg, po by HPLC analysis; assay type: ADME, organism-based; parameters: dose 250 mg/kg, route oral; settings: plasma
[12] = AUC in Wistar rat at 250 mg/kg, iv by HPLC analysis; assay type: ADME, organism-based; parameters: dose 250 mg/kg, route intravenous; settings: plasma
[13] = Half life in Wistar rat at 250 mg/kg, po by HPLC analysis; assay type: ADME, organism-based; parameters: dose 250 mg/kg, route oral; settings: in vivo
[14] = Half life in Wistar rat at 250 mg/kg, iv by HPLC analysis; assay type: ADME, organism-based; parameters: dose 250 mg/kg, route intravenous; settings: Wistar, in vivo
[15] = Elimination rate constant in Wistar rat at 250 mg/kg, po by HPLC analysis; assay type: ADME, organism-based; parameters: dose 250 mg/kg, route oral; settings: in vivo, read-out: Ke (converted)
[16] = Elimination rate constant in Wistar rat at 250 mg/kg, iv by HPLC analysis; assay type: ADME, organism-based; parameters: dose 250 mg/kg, route intravenous; settings: Wistar, in vivo, read-out: Ke (converted)
[17] = Clearance in Wistar rat at 250 mg/kg, po by HPLC analysis; assay type: ADME, organism-based; parameters: dose 250 mg/kg, route oral; settings: in vivo
[18] = Clearance in Wistar rat at 250 mg/kg, iv by HPLC analysis; assay type: ADME, organism-based; parameters: dose 250 mg/kg, route intravenous; settings: in vivo
[19] = Tmax in Wistar rat at 250 mg/kg, po by HPLC analysis; assay type: ADME, organism-based; parameters: dose 250 mg/kg, route oral; settings: in vivo
[20] = Cmax in Wistar rat at 250 mg/kg, po by HPLC analysis; assay type: ADME, organism-based; parameters: dose 250 mg/kg, route oral; settings: in vivo
Rattus norvegicus [21] = experiment: Volume of distribution in Wistar rat at 250 mg/kg, po by HPLC analysis; assay type: ADME, organism-based; parameters: dose 250 mg/kg, route oral; settings: in vivo
Rattus norvegicus [22] = experiment: Absorption rate constant in Wistar rat at 250 mg/kg, po by HPLC analysis; assay type: ADME, organism-based; parameters: dose 250 mg/kg, route oral; settings: in vivo
[23] = Oral bioavailability in Wistar rat at 250 mg/kg by HPLC analysis; assay type: ADME, organism-based; settings: in vivo
Liver = experiment: AUC (0.083 to 4 hrs) in Wistar rat liver at 750 mg/kg, po by LC-MS/MS analysis; assay type: ADME, organism-based; parameters: time 0.083-4 hr, dose 750 mg/kg, route oral; settings: in vivo
Kidney = experiment: AUC (0.083 to 4 hrs) in Wistar rat kidney at 750 mg/kg, po by LC-MS/MS analysis; assay type: ADME, organism-based; parameters: time 0.083-4 hr, dose 750 mg/kg, route oral; settings: in vivo
Lung = experiment: AUC (0.083 to 4 hrs) in Wistar rat lung at 750 mg/kg, po by LC-MS/MS analysis; assay type: ADME, organism-based; parameters: time upper 4 hr, time lower 0.083 hr, dose 750 mg/kg, route oral; settings: in vivo
Brain = experiment: AUC (0.083 to 4 hrs) in Wistar rat brain at 750 mg/kg, po by LC-MS/MS analysis; assay type: ADME, organism-based; parameters: time 0.083-4 hr, dose 750 mg/kg, route oral; settings: in vivo
[24] = Cmax in Wistar rat liver at 750 mg/kg, po by LC-MS/MS analysis; assay type: ADME, organism-based; parameters: dose 750 mg/kg, route oral
[25] = Cmax in Wistar rat kidney at 750 mg/kg, po by LC-MS/MS analysis; assay type: ADME, organism-based; parameters: dose 750 mg/kg, route oral
[26] = Cmax in Wistar rat lung at 750 mg/kg, po by LC-MS/MS analysis; assay type: ADME, organism-based; parameters: dose 750 mg/kg, route oral
[27] = Cmax in Wistar rat brain at 750 mg/kg, po by LC-MS/MS analysis; assay type: ADME, organism-based; parameters: dose 750 mg/kg, route oral
[28] = Cmax in Wistar rat testes at 750 mg/kg, po by LC-MS/MS analysis; assay type: ADME, organism-based, Testis; parameters: dose 750 mg/kg, route oral
[29] = Tmax in Wistar rat liver at 750 mg/kg, po by LC-MS/MS analysis; assay type: ADME, organism-based; parameters: dose 750 mg/kg, route oral
[30] = Tmax in Wistar rat kidney at 750 mg/kg, po by LC-MS/MS analysis; assay type: ADME, organism-based; parameters: dose 750 mg/kg, route oral
[31] = Tmax in Wistar rat lung at 750 mg/kg, po by LC-MS/MS analysis; assay type: ADME, organism-based; parameters: dose 750 mg/kg, route oral
[32] = Tmax in Wistar rat brain at 750 mg/kg, po by LC-MS/MS analysis; assay type: ADME, organism-based; parameters: dose 750 mg/kg, route oral
[33] = Tmax in Wistar rat testes at 750 mg/kg, po by LC-MS/MS analysis; assay type: ADME, organism-based, Testis; parameters: dose 750 mg/kg, route oral
[34] = Drug excretion in Wistar rat urine at 750 mg/kg, po after up to 72 hrs by HPLC-UV analysis; assay type: ADME, organism-based; parameters: dose 750 mg/kg, route oral; settings: read-out: Drug excretion
[35] = Drug excretion in Wistar rat feces at 750 mg/kg, po after up to 72 hrs by HPLC-UV analysis; assay type: ADME, organism-based; parameters: dose 750 mg/kg, route oral; settings: faeces, read-out: Drug excretion
[36] = AUC (0.083 to 4 hrs) in Wistar rat testes at 750 mg/kg, po by LC-MS/MS analysis; assay type: ADME, organism-based, Testis; parameters: time 0.083-4 hr, dose 750 mg/kg, route oral; settings: in vivo

Compound: COc1cc(O)c2c(=O)c(OC)c(-c3ccc(OC)c(OC)c3)oc2c1 [RETUSIN]
- Drug excretion [1]: Active
- Drug excretion [2]: Active

Compound: COc1cc(O)c2c(=O)c(O)c(-c3ccc(O)cc3)oc2c1 [RHAMNOCITRIN]
- Drug metabolism [3]: metabolite_detected

Compound: COc1cc(O)c2c(=O)cc(-c3ccccc3)oc2c1 [TECHTOCHRYSIN]
- Drug excretion [1]: Active
- Drug excretion [2]: Active

Compound: COc1ccc(-c2oc3cc(OC)cc(OC)c3c(=O)c2OC)cc1 [TETRAMETHYLKAEMPFEROL]
- Drug metabolism [4]: metabolite_detected
- Drug metabolism [5]: metabolite_detected

Compound: COc1ccc(-c2cc(=O)c3c(OC)cc(OC)cc3o2)cc1 [TRIMETHYLAPIGENIN]
- Drug metabolism [6]: metabolite_detected
- Drug metabolism [7]: metabolite_detected
- Drug metabolism [8]: metabolite_detected
- Drug excretion [9]: Active
- Drug excretion [10]: Active
- AUC [11]: 6.96 µg·h/mL
- AUC [12]: 276 µg·h/mL
- half-life [13]: 5.04 h
- half-life [14]: 4.19 h
- k el [15]: 4.17e-05 s⁻¹
- k el [16]: 8.89e-05 s⁻¹
- CL/F [17]: 5.62 mL/min
- clearance [18]: 0.105 mL/min
- Tmax [19]: 0.85 h
- Cmax [20]: 880 ng/mL
- Vd (Rattus norvegicus [21]): 2385.1 mL
- ka (Rattus norvegicus [22]): 8.53 h⁻¹
- bioavailability [23]: 1.75%
- AUC (Liver): 7.83 µg·h/g
- AUC (Kidney): 3.01 µg·h/g
- AUC (Lung): 1.88 µg·h/g
- AUC (Brain): 2.5 µg·h/g
- Cmax [24]: 3010 ng/g
- Cmax [25]: 1640 ng/g
- Cmax [26]: 1410 ng/g
- Cmax [27]: 1430 ng/g
- Cmax [28]: 1100 ng/g
- Tmax [29]: 2.64 h
- Tmax [30]: 3.43 h
- Tmax [31]: 1.76 h
- Tmax [32]: 3.43 h
- Tmax [33]: 3.14 h
- Drug excretion [1]: Active
- Drug excretion [2]: Active
- dose excreted at 72 h [34]: 1.77%
- dose excreted at 72 h [35]: 1.76%
- AUC [36]: 1.96 µg·h/g
